We go through three molecules from patent US12286437B2, “Cardiac sarcomere inhibitors” (Cytokinetics, Inc., priority 2021, dated 2025).

Read-outs that look alike come from different tables or passages of the source.

One data set concerns the target T1, CYP3A4 (Homo sapiens, UniProt P08684).
T1 construct: Pooled human microsomes and selective CYP probe substrates were used; from tissue; host or cells: pooled human liver microsomes
The data set is described as follows: Time-dependent inhibition of CYP3A4 in human liver microsomes (testosterone and midazolam probes). It is filed as in vitro ADME. The note with it: for (% Activity NADPH T0)/(% Activity NADPH T30): fold change; for activity at 30 min, 25 µM / activity at 30 min, 50 µM: human, after 30 minutes incubation, read-out: % Activity NADPH T30; for activity at 30 min, 25 µM / activity at 30 min, 50 µM / activity at 0 min, 25 µM / activity at 0 min, 50 µM: pooled human liver microsomes; for activity at 0 min, 25 µM / activity at 0 min, 50 µM: human liver microsomes, time zero, read-out: % Activity NADPH T0. The method, then:
(§1) An assessment of the time-dependent Inhibitory Potential of the test compounds against Principal Human Cytochrome P450 Isozymes using Human Liver Microsomes was also carried out using standard methods (Grimm et al, Drug Metab. Dispos., July; 37(7):1355-70. doi: 10.1124/dmd.109.026716, 2009). Pooled human microsomes and selective CYP probe substrates were used for in vitro assessment of test compounds at 25 and 50 μM as time-dependent inhibitors of […] human hepatic cytochrome P450 isozymes (CYP1A2, 2B6, 2C9, 2C19, 2D6, and 3A4). LC-MS/MS was used to quantify metabolite formation. The inhibition of each P450 enzyme in human liver microsomes was measured as the percentage decrease in the activity of marker metabolite formation as measured by LC-MS/MS compared to non-inhibited controls (=100% activity) at time zero and after 30 minutes incubation. The occurrence of any time dependent inhibition was then expressed as the fold change in enzyme activity at time zero relative to the activity after 30 minutes incubation.
For orientation: Microsomes from liver hold many membrane-bound enzymes, among them those of drug oxidation.

A short description of data set [1]: Mouse single dose pharmacokinetics. It is filed as in vivo, C57BL/6 mice. The conditions noted are these: male, C57BL/6, plasma, 0.5 mg/kg, IV; for Vd: read-out: Vss; for half-life: read-out: t½ (converted). The method, then:
Male C57BL/6 mice (18-25 g, 6-8 weeks old) were obtained from Zhejiang Vital River Laboratory Animal Technology Co., Ltd. All animals for IV administration had free access to food and water. The IV dosing was performed through tail vein. The IV dose solution for the Test Articles was prepared in 10% DMA/20% PG/70% HPβCD solution (40% w/v aqueous HPβCD) at a concentration of 0.1 mg/mL. The oral dosing suspension was prepared by suspending Test Article in 0.5% HPMC/0.1% Tween 80 in water at a concentration 0.2 mg/mL. Concentrations of IV and PO doses were measured at the end of the study. Pharmacokinetic (PK) parameters were calculated using the nominal dose values if the measured values were within 20% of the nominal values. A group of 15 mice received the IV dose where the volume was 5 mL/kg. Another group of 15 mice received by oral gavage of Test Article at 1 mg/kg. The oral dose volume was 5 mL/kg. Sparse blood samples were collected from groups of three mice via retro-orbital bleeding, placed into a K2EDTA microtainer tube and maintained on ice until centrifugation to obtain plasma. Each designated group of mice were bled at two-time points. The time points were predose (PO only), 5 (IV only), 15, 30 minutes, 1, 2, 4, 6, 8 and 24 hours postdose. Blood samples were centrifuged and the collected plasma was stored at −80° C. until analysis. Plasma samples were analyzed for Test Article concentrations using an LC/MS/MS method. Briefly, a 50 μL aliquot of each plasma sample was mixed with 100 μL of acetonitrile that contained an internal standard (IS). The mixture was vortexed and centrifuged. Ten (10) μL of the resulting solution was injected onto a reverse-phase C18 column and the resultant peaks detected on a LC/MS/MS equipped with a turbo ionspray ionization source. Sample concentrations below the limit of quantification (BLQ) were treated as zero for PK calculations. Composite PK parameters were estimated from a maximum of two sampling points per mouse and three mice per sampling point and the sparse data option of WinNonlin was used for noncompartmental analysis of the concentration-time data (Phoenix WinNonLin software, version 64; Pharsight, Mountain View, CA). The elimination rate constant (k) was calculated as the absolute value of the slope of the linear regression of logarithm of the concentration versus time for the last three data points of the concentration-time profiles. Apparent elimination half-life (t1/2) values were calculated as ln(2)/k. Area under the concentration-time curve (AUC) values were estimated using linear trapezoidal method. AUCt values were calculated from the dosing time to the last measurable concentration. AUC∞ values were calculated as the sum of the corresponding AUCt and the ratio of the last detectable concentration divided by k. Plasma clearance (CL) was calculated from Dose/AUC∞. Mean resident time (MRT) was estimated by moment analysis. Volume of distribution at steady state (Vss) was calculated from MRT∞×CL. Maximum concentration (Cmax) and time to reach Cmax (tmax) were recorded as observed. Bioavailability was calculated dAUC∞,po/dAUC∞,iv×100% where dAUC was the dose normalized AUC value. Data for compounds tested are provided in Table B. Compounds tested were prepared in accordance with the synthetic procedures described herein.

A further data set addresses T2, CYP2B6 (Homo sapiens, UniProt P20813).
T2 construct: Pooled human microsomes and selective CYP probe substrates were used; from tissue; host or cells: pooled human liver microsomes
T2 sequence (P20813 1-491): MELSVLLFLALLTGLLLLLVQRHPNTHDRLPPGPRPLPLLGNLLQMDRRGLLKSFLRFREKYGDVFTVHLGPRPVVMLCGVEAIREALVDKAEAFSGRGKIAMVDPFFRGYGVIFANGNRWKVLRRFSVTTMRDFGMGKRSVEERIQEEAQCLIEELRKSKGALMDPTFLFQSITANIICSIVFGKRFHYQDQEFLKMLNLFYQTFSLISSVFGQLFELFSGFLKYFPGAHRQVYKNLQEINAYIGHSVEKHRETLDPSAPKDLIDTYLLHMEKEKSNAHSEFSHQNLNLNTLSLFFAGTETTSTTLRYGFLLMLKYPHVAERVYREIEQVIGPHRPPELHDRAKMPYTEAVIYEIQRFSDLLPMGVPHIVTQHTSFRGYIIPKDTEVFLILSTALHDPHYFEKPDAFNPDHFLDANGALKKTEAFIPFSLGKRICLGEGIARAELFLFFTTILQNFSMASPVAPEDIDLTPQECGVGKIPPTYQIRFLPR
The data set is described as follows: Time-dependent inhibition of CYP2B6 in human liver microsomes. It is filed as in vitro ADME. The conditions noted are these: for (% Activity NADPH T0)/(% Activity NADPH T30): fold change; for activity at 30 min, 25 µM / activity at 0 min, 25 µM / activity at 30 min, 50 µM / activity at 0 min, 50 µM: pooled human liver microsomes, human liver microsomes; for activity at 30 min, 25 µM / activity at 30 min, 50 µM: after 30 minutes incubation, read-out: % Activity NADPH T30; for activity at 0 min, 25 µM / activity at 0 min, 50 µM: time zero, read-out: % Activity NADPH T0. The protocol: as §1

[2] abbreviates: CYP3A4-M (midazolam probe substrate), 25 μM.
The mark [3] stands for this setting: CYP3A4-M (midazolam probe substrate), 50 μM.
[4] abbreviates: CYP3A4-T (testosterone probe substrate), 25 μM.
The mark [5] stands for this setting: CYP3A4-T (testosterone probe substrate), 50 μM.

T1 sequence (P08684 whole entry): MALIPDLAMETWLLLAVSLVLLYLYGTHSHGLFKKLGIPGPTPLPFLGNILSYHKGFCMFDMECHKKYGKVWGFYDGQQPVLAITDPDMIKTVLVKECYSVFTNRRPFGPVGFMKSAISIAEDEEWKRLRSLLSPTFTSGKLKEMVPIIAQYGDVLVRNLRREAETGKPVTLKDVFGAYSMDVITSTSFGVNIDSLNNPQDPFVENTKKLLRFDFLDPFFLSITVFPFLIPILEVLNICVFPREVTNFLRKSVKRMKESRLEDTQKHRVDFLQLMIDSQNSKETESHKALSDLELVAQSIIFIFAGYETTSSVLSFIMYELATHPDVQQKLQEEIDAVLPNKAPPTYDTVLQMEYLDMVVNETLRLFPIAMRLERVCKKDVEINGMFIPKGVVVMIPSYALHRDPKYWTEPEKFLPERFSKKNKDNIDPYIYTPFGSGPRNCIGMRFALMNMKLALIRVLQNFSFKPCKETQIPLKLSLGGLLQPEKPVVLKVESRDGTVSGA

One may read the clearance as a measure of how efficiently the substance is removed, as volume per time. `CC(C)N1CC(=O)N(Cc2ccc(Cl)c(F)c2)C2(CN(c3cccnn3)C2)C1=O` [Compound 8, 5-(4-chloro-3-fluorobenzyl)-8-isopropyl-2-(pyridazin-3-yl)-2,5,8-triazaspiro[3.5]nonane-6,9-dione]: at CYP3A4 (setting [2]), the “(% Activity NADPH T0)/(% Activity NADPH T30)” value is given as 1.0; the activity at 30 min, 25 µM came to 100%; the activity at 0 min, 25 µM came to 100%. Further, at CYP3A4 (setting [3]), the “(% Activity NADPH T0)/(% Activity NADPH T30)” value is 1.0; the activity at 30 min, 50 µM was 100%; the activity at 0 min, 50 µM is 100%. In addition, on CYP3A4 (setting [4]), the “(% Activity NADPH T0)/(% Activity NADPH T30)” value stood at 1.0; the activity at 30 min, 25 µM stood at 100%; the activity at 0 min, 25 µM turned out to be 100%. In addition, on CYP3A4 (setting [5]), the “(% Activity NADPH T0)/(% Activity NADPH T30)” value worked out at 1.0; the activity at 30 min, 50 µM came to 100%; the activity at 0 min, 50 µM stood at 100%. In data set [1], the clearance worked out at 132 mL/min/kg, the Vd is 5.14 L/kg and the half-life is 39.6 min. For the same molecule, at CYP2B6 (CYP2B6, 25 μM), the “(% Activity NADPH T0)/(% Activity NADPH T30)” value worked out at 0.9; the activity at 30 min, 25 µM was 97%; the activity at 0 min, 25 µM was found to be 83%. For the same molecule, on CYP2B6 (CYP2B6, 50 μM), the “(% Activity NADPH T0)/(% Activity NADPH T30)” value turned out to be 0.9; the activity at 30 min, 50 µM came out at 100%; the activity at 0 min, 50 µM amounted to 88%.

For the molecule `CC(C)N1CC(=O)N(Cc2ccc(C(F)(F)F)cc2)C2(CN(c3cccnn3)C2)C1=O` [Compound 13, 8-isopropyl-2-(pyridazin-3-yl)-5-(4-(trifluoromethyl)benzyl)-2,5,8-triazaspiro[3.5]nonane-6,9-dione], at CYP3A4 (setting [2]), the “(% Activity NADPH T0)/(% Activity NADPH T30)” value was found to be 1.0; the activity at 30 min, 25 µM came out at 88%; the activity at 0 min, 25 µM was found to be 87%. In addition, on CYP3A4 (setting [3]), the “(% Activity NADPH T0)/(% Activity NADPH T30)” value is recorded as 0.7; the activity at 30 min, 50 µM was 97%; the activity at 0 min, 50 µM turned out to be 72%. In addition, on CYP3A4 (setting [4]), the “(% Activity NADPH T0)/(% Activity NADPH T30)” value was 1.0; the activity at 30 min, 25 µM came to 77%; the activity at 0 min, 25 µM is 74%. At CYP3A4 (setting [5]), the “(% Activity NADPH T0)/(% Activity NADPH T30)” value was found to be 0.9; the activity at 30 min, 50 µM stood at 65%; the activity at 0 min, 50 µM stood at 56%. In data set [1], the clearance was 101 mL/min/kg, the Vd stood at 2.25 L/kg and the half-life was 27.6 min. For the same molecule, at CYP2B6 (CYP2B6, 25 μM), the “(% Activity NADPH T0)/(% Activity NADPH T30)” value was determined as 0.9; the activity at 30 min, 25 µM came to 116%; the activity at 0 min, 25 µM was determined as 102%. On CYP2B6 (CYP2B6, 50 μM), the “(% Activity NADPH T0)/(% Activity NADPH T30)” value turned out to be 1.1; the activity at 30 min, 50 µM worked out at 81%; the activity at 0 min, 50 µM turned out to be 90%.

Regarding `C[C@H]1CC[C@H](N2CC(=O)N(Cc3ccc(Cl)cc3)C3(CN(C(N)=O)C3)C2=O)CC1` [Compound 18, 5-(4-chlorobenzyl)-8-((1r,4r)-4-methylcyclohexyl)-6,9-dioxo-2,5,8-triazaspiro[3.5]nonane-2-carboxamide], on CYP3A4 (setting [2]), the “(% Activity NADPH T0)/(% Activity NADPH T30)” value is on record as 1.8; the activity at 30 min, 25 µM was 71%; the activity at 0 min, 25 µM was determined as 125%. Further, at CYP3A4 (setting [3]), the “(% Activity NADPH T0)/(% Activity NADPH T30)” value is 1.2; the activity at 30 min, 50 µM stood at 102%; the activity at 0 min, 50 µM was determined as 126%. Also, at CYP3A4 (setting [4]), the “(% Activity NADPH T0)/(% Activity NADPH T30)” value is on record as 1.2; the activity at 30 min, 25 µM turned out to be 85%; the activity at 0 min, 25 µM stood at 100%. Further, on CYP3A4 (setting [5]), the “(% Activity NADPH T0)/(% Activity NADPH T30)” value turned out to be 1.1; the activity at 30 min, 50 µM was 75%; the activity at 0 min, 50 µM turned out to be 85%. In data set [1], the clearance came to 21 mL/min/kg, the Vd came out at 2.95 L/kg and the half-life was 70.8 min. On CYP2B6 (CYP2B6, 25 μM), the “(% Activity NADPH T0)/(% Activity NADPH T30)” value turned out to be 0.8; the activity at 30 min, 25 µM amounted to 103%; the activity at 0 min, 25 µM was found to be 80%. Moreover, at CYP2B6 (CYP2B6, 50 μM), the “(% Activity NADPH T0)/(% Activity NADPH T30)” value turned out to be 0.9; the activity at 30 min, 50 µM was 83%; the activity at 0 min, 50 µM came out at 76%.
